Experimental data taken from patent publication US20130096067A1, “DROSOPHILA TUMOR STEM CELL MODEL AND USES THEREOF” (priority 2011, published 2013).
Like-named read-outs stand apart in the source and are kept apart here. Square brackets hold non-standard residues; d marks the D form. Peptide text beside a SMILES is read from it. * marks the point of attachment. Sta = CC(C)C[C@H](N)[C@@H](O)CC(=O)O; Isovaleryl = CC(C)CC(=O)*

Test system: Raf-1^gof intestinal tumors
Settings: for Log2 (fold) of luciferase activity relative to DMSO controls / Fold (luciferase activity relative to DMSO controls): ICCB compounds fed in vials to flies with one-day old Raf-1^gof tumors; for Fold: luciferase relative to DMSO, fed three consecutive days in vials
[1] = screen of 480 ICCB compounds in vials, compounds fed to flies with one-day old Raf-1^gof tumors, assessed three days later, esg-Gal4 luciferase
[2] = screen of 480 ICCB compounds in vials, compounds fed to flies with one-day old Raf-1^gof tumors, assessed three days later, esg-Gal4 luciferase, averaged from multiple wells
[3] = assessed three days later, averaged from multiple wells
[4] = Table 3 summary of hits, Screen ICCB
Throughout, for Fold (luciferase activity relative to DMSO controls): test concentration or dose not given here.
Throughout, for Fold (luciferase activity, fold difference relative to DMSO controls): test concentration or dose not given here.
Throughout, for Log2 (fold) (luciferase activity, log2 of the fold difference relative to DMSO controls): test concentration or dose not given here.
Throughout, for Log2 (fold) of luciferase activity relative to DMSO controls: test concentration or dose not given here.

Compound	Log2 (fold) (luciferase activity, log2 of the fold difference relative to DMSO controls) [1]	Fold (luciferase activity, fold difference relative to DMSO controls) [2]	Log2 (fold) of luciferase activity relative to DMSO controls (assessed three days later)	Fold (luciferase activity relative to DMSO controls) [3] [fold]	further results
COc1c(C=O)c(O)cc2c1C(=O)c1ccccc1C2=O [damnacanthal]	−0.482	0.716			
C=C1O[C@@](CO)(n2cnc3c(N)ncnc32)[C@H](O)[C@@H]1O [decoyinine]	−0.298	0.813			
OC[C@H]1NC[C@@H](O)[C@@H](O)[C@@H]1O [deoxymannojirimycin(1)]			−0.125	0.917	
OC[C@H]1NC[C@H](O)[C@@H](O)[C@@H]1O [deoxynorjrimycin(1)]			−0.154	0.899	
C[C@@H]1C[C@H]2[C@@H]3CCC4=CC(=O)C=C[C@]4(C)[C@@]3(F)[C@@H](O)C[C@]2(C)[C@@]1(O)C(=O)CO [dexamethasone]	−0.245	0.844			
CCCC(=O)Nc1ncnc2c1ncn2[C@@H]1O[C@@H]2COP(=O)(O)O[C@H]2[C@H]1OC(=O)CCC [dibutyrylcyclic AMP]	−0.701	0.615			
CCCC(=O)Nc1nc2c(ncn2C2O[C@H]3COP(=O)(O)O[C@@H]3[C@@H]2OC(=O)CCC)c(=O)[nH]1 (some centres unmarked) [dibutyrylcyclic GMP]	−0.342	0.789			
[Cl-].c1ccc2c(c1)[I+]c1ccccc1-2 [diphenyleneiodonium Cl]	−0.576	0.671			
OCCN(CCO)c1nc(N2CCCCC2)c2nc(N(CCO)CCO)nc(N3CCCCC3)c2n1 [dipyridamole]	−0.431	0.742			
COc1cccc2c1C(=O)c1c(O)c3c(c(O)c1C2=O)C[C@@](O)(C(=O)CO)C[C@@H]3O[C@H]1C[C@H](N)[C@H](O)[C@H](C)O1 [doxorubicin]	−0.520	0.697			
C=C[C@@]1(C)CC(=O)[C@]2(O)[C@@]3(C)[C@@H](O)CCC(C)(C)[C@@H]3[C@H](O)[C@H](OC(C)=O)[C@@]2(C)O1 [forskolin]	−0.449	0.732			
COC1=C2C[C@@H](C)C[C@H](OC)[C@H](O)[C@@H](C)/C=C(\C)[C@H](OC(N)=O)[C@@H](OC)/C=C\C=C(/C)C(=O)NC(=CC1=O)C2=O [geldanamycin]	−0.772	0.586			
O=c1c(-c2ccc(O)cc2)coc2cc(O)cc(O)c12 [genistein]	−0.275	0.826			
COc1ccc2c(c1)c(CC(=O)O)c(C)n2C(=O)c1ccc(Cl)cc1 [indomethacin]	−0.549	0.683			
C[C@H](CCC(=O)O)C[C@H](C)C[C@H](C)C(=O)/C=C(\O)[C@H](C)C[C@H](C)C/C=C/[C@@H](C)[C@@H](O)[C@@H](C)[C@@H](O)C[C@@H]1CC[C@@](C)([C@H]2CC[C@@](C)([C@@H](C)O)O2)O1 [ionomycin]	−0.591	0.664			
CCCC[C@@H](C)/C=C(C)/C=C(\C)C(=O)NC1=C[C@@](O)(/C=C/C=C/C=C/C(=O)NC2=C(O)CCC2=O)[C@@H]2O[C@@H]2C1=O [manumycin A]	−0.233	0.851			
C=C1[C@@H](O)[C@@H]2O[C@]3(CC[C@H](/C=C/[C@@H](C)[C@@H]4CC(C)=C[C@@]5(O[C@H](C[C@@](C)(O)C(=O)O)CC[C@H]5O)O4)O3)CC[C@H]2O[C@@H]1[C@@H](O)C[C@H](C)[C@H]1O[C@@]2(CCCCO2)CC[C@H]1C [okadaic acid, reference compound]	−1.713	0.305			Fold [4]: 0.305 fold
CC[C@@H]1/C=C/C=C/C[C@H](C)[C@H](O)[C@](C)(O)C(=O)[C@H](C)[C@@H](O)[C@H](C)C(=O)[C@H](C)[C@@H](O)[C@H](C)/C=C/C(=O)O[C@H]2[C@@H](C)[C@@H](CC1)O[C@@]1(CC[C@@H](C)[C@@H](C[C@H](C)O)O1)[C@@H]2C [oligomycin A, reference compound]	−1.131	0.457			Fold [4]: 0.457 fold
Cn1cnc2c(NCc3ccccc3)nc(NCCO)nc21 [olomoucine]	−0.406	0.755			
CC(C)CC(=O)N[C@H](C(=O)N[C@H](C(=O)N[C@@H](CC(C)C)[C@@H](O)CC(=O)N[C@@H](C)C(=O)N[C@@H](CC(C)C)[C@@H](O)CC(=O)O)C(C)C)C(C)C [pepstatin] (Isovaleryl-VV[Sta]A[Sta]-OH)	−0.491	0.711			

Compound	Log2 (fold) (luciferase activity, log2 of the fold difference relative to DMSO controls) [1]	Fold (luciferase activity, fold difference relative to DMSO controls) [2]	Log2 (fold) of luciferase activity relative to DMSO controls (assessed three days later)	Fold (luciferase activity relative to DMSO controls) [3] [fold]	further results
CCCCCCCCCCCCCC(=O)O[C@@H]1[C@@H](C)[C@@]2(O)[C@@H](C=C(CO)C[C@]3(O)C(=O)C(C)=C[C@@H]23)[C@@H]2C(C)(C)[C@]12OC(C)=O [phorbol 12 myristate 13 acetate]	−0.323	0.799			
CN1C(C(=O)Nc2ccccn2)=C(O)c2ccccc2S1(=O)=O [piroxicam]			0.147	1.107	
COc1cc2nc(N3CCN(C(=O)c4ccco4)CC3)nc(N)c2cc1OC [prazocin]			0.011	1.008	
CC[N+](C)(CC)CCC[n+]1c(-c2ccccc2)c2cc(N)ccc2c2ccc(N)cc21.[I-].[I-] [propidium iodide]			0.100	1.072	
COc1ccc(C[C@H](N)C(=O)N[C@H]2[C@@H](O)[C@H](n3cnc4c(N(C)C)ncnc43)O[C@@H]2CO)cc1 [puromycin]			0.281	1.215	
O=c1c(O)c(-c2ccc(O)c(O)c2)oc2cc(O)cc(O)c12 [quercetin]					Fold (luciferase activity, fold difference relative to DMSO controls) (in vivo): 0.737; Log2 (fold) (luciferase activity, log2 of the fold difference relative to DMSO controls) (in vivo): −0.440
Oc1ccc(C=Cc2cc(O)cc(O)c2)cc1 [resveratrol]	−0.551	0.682			
CC[C@H](CO)Nc1nc(NCc2ccccc2)c2ncn(C(C)C)c2n1 [roscovitine]					Fold (luciferase activity, fold difference relative to DMSO controls) (in vivo): 0.659; Log2 (fold) (luciferase activity, log2 of the fold difference relative to DMSO controls) (in vivo): −0.602
NCCc1c[nH]c2ccc(O)cc12 [serotonin]			0.266	1.203	
CN/C(=N\c1ccc(C2=NNC(=O)CC2C)cc1)NC#N (centres unmarked) [siguazodan]	−0.376	0.771			
O[C@H]1[C@H]2[C@H](O)CCCN2C[C@H]1O [swainsonine]	−0.233	0.851			
CC/C(=C(\c1ccccc1)c1ccc(OCCN(C)C)cc1)c1ccccc1 [tamoxifen, reference compound]	−1.562	0.339			Fold [4]: 0.339 fold
CC(/C=C/C(=O)NO)=C\[C@@H](C)C(=O)c1ccc(N(C)C)cc1 [trichostatin-A]			−0.109	0.927	
CN1CCN(CCCN2c3ccccc3Sc3ccc(C(F)(F)F)cc32)CC1 [trifluoperazine]			−0.206	0.867	
CC(C)[C@]12O[C@H]1[C@@H]1O[C@]13[C@]1(O[C@H]1C[C@H]1C4=C(CC[C@@]13C)C(=O)OC4)[C@@H]2O [triptolide, reference compound]					Log2 (fold) [4]: −2.553
CC(C)(C)c1cc(C=C(C#N)C#N)cc(C(C)(C)C)c1O [tyrphostin 9]			0.671	1.592	
N#CC(C#N)=Cc1ccc([N+](=O)[O-])c(O)c1 [tyrphostin AG-126]			−0.085	0.943	
N#CC(=Cc1ccc2[nH]ccc2c1)C(N)=C(C#N)C#N [tyrphostin AG-370]			0.314	1.243	
COc1cc(/C=C(\C#N)C(N)=O)cc(CSc2nc3ccccc3s2)c1O [tyrphostin AG-825]			−0.042	0.972	
